Test [1] concerns IL-12p70 (the complex of IL-12p35 and p40). The test can be described thus: IL-12p70 production inhibition in macrophages derived from mouse abdomen (IFN-γ/SAC stimulation, ELISA). The format is cell-based. The following applies: Macrophage; mouse (Balb/c) abdominal macrophages, 100 ng/mL mouse IFN-γ + 0.05% SAC, overnight; TFA salts tested where prepared as such; read-out: IL-12p70-Inhibitory Activity IC50. As to the method:
(§1) One milliliter each of a 3% (w/v) thioglycolate solution was intraperitoneally administered to mice (female Balb/c mice), the abdominal cells of each mouse were recovered after 5 or 6 days from the administration of the thioglycolate solution and the adhesive cells were collected and used in the exaluation procedures. To a culture medium containing such adhesive cells, there were added 100 ng/mL of mouse interferon-γ and a 0.05% (v/v) liquid containing killed cells derived from Staphylococcus aureus Cowan I strain (SAC) and a candidate compound and then the mixture was cultivated overnight. After the completion of the cultivation, the survival ratios were determined, there were quantitatively determined the quantities of IL-12p70 (the complex of IL-12p35 and p40) and IL-12p40 or TNF-α according to the ELISA assays while making use of the recovered supernatant of the culture medium and the 50% production-inhibitory concentration (IC50) was calculated for each case (see Table 1 and Tables 1-9 for IL-12p70 and TNF-α and Tables 1 to 10 for IL-12p40).
Background: In an ELISA, binding on a coated surface is turned into a signal by an enzyme label.

Test [2] deals with TNF-α. The experiment in a line: TNF-α production inhibition in macrophages derived from mouse abdomen (IFN-γ/SAC stimulation, ELISA). The format is cell-based. To be noted: Macrophage; mouse (Balb/c) abdominal macrophages, 100 ng/mL mouse IFN-γ + 0.05% SAC, overnight; TFA salts tested where prepared as such; read-out: TNF-α-Inhibitory Activity IC50. As to the method:
as §1

Bounds are passed on as bounds.

In general, IC50 refers to the concentration at which inhibition is half-maximal.

Consider `Cc1cccc(/C=N/Nc2cc(N3CCOCC3)n3nc(-c4ccccc4)cc3n2)c1` [Compound 1, N-(3-methyl-benzylidene)-N′-(2-phenyl-7-morpholin-4-yl-pyrazolo[1,5-a]pyrimidin-5-yl)-hydrazine], for which the results for the IC50 in test [1] and in test [2] were 19 nM and over 10000 nM, respectively.
The like results for `C(=N\Nc1cc(N2CCOCC2)n2nc(-c3ccccc3)cc2n1)/c1c[nH]c2ccccc12` [Compound 2, N-(1H-indol-3-yl-methylidene)-N′-(7-morpholin-4-yl-2-phenyl-pyrazolo[1,5-a]pyrimidin-5-yl)-hydrazine] were, in that order, 33 nM and over 10000 nM.
The like results for `Cc1ccc(-c2cc3nc(N/N=C/c4cccc(C)c4)cc(N4CCOCC4)n3n2)cc1` [Compound 3, N-(3-methyl-benzylidene)-N′-{2-(4-methylphenyl)-7-morpholin-4-yl-pyrazolo[1,5-a]pyrimidin-5-yl}-hydrazine] were, in that order, 35 nM and over 10000 nM.
For `Cc1ccc(-c2cc3nc(N/N=C/c4c[nH]c5ccccc45)cc(N4CCOCC4)n3n2)cc1` [Compound 4, N-(1H-indol-3-yl-methylidene)-N′-{2-(4-methylphenyl)-7-morpholin-4-yl-pyrazolo[1,5-a]pyrimidin-5-yl}-hydrazine] the same measures were 23 nM and over 10000 nM.
With `Cc1ccc(-c2nn3c(N4CCOCC4)cc(N/N=C/c4cccc(C)c4)nc3c2Br)cc1` [Compound 5, N-{3-bromo-2-(4-methylphenyl)-7-morpholin-4-yl-pyrazolo-[1,5-a]pyrimidin-5-yl}-N′-(3-methyl-benzylidene)-hydrazine], the concentration for half-maximal inhibition (IC50) in test [1] is 124 nM; in test [2] it was over 10000 nM.
For `Cc1cccc(/C=N/Nc2cc(N3CCOCC3)n3ncc(-c4ccccc4)c3n2)c1` [Compound 6, N-(3-methyl-benzylidene)-N′-(7-morpholin-4-yl-3-phenyl-pyrazolo[1,5-a]pyrimidin-5-yl)-hydrazine] the same measures were 642 nM and over 10000 nM.
As to `C(=N\Nc1cc(N2CCOCC2)n2nc(-c3ccccc3)cc2n1)/c1ccccc1` [Compound 7, N-benzylidene-N′-(7-morpholin-4-yl-2-phenyl-pyrazolo-[1,5-a]pyrimidin-5-yl)-hydrazine], the IC50 was 113 nM in test [1] and over 10000 nM in test [2].
For `C(=N\Nc1cc(N2CCOCC2)n2nc(-c3ccccc3)cc2n1)/c1cccnc1` [Compound 8, N-(7-morpholin-4-yl-2-phenyl-pyrazolo[1,5-a]pyrimidin-5-yl)-N′-pyridin-3-yl-methylidene-hydrazine] the same measures were 407 nM and over 10000 nM.
The like results for `C(=N\Nc1cc(N2CCOCC2)n2nccc2n1)/c1c[nH]c2ccccc12` [Compound 10, N-(1H-indol-3-yl-methylidene)-N′-(7-morpholin-4-yl-pyrazolo[1,5-a]pyrimidin-5-yl)-hydrazine] were, in that order, 165 nM and over 10000 nM.
The like results for `Cc1cccc(/C=N/Nc2cc(N3CCOCC3)n3ncc(Br)c3n2)c1` [Compound 11, N-(3-bromo-7-morpholin-4-yl-pyrazolo[1,5-a]pyrimidin-5-yl)-N′-(3-methyl-benzylidene)-hydrazine] were, in that order, 340 nM and over 10000 nM.
As to `Cc1cccc(/C=N/Nc2cc(N3CCOCC3)n3nc(-c4cccc(Cl)c4)cc3n2)c1` [Compound 12, N-{2-(3-chloro-phenyl)-7-morpholin-4-yl-pyrazolo[1,5-a]-pyrimidin-5-yl}-N′-(3-methyl-benzylidene)-hydrazine], the IC50 in test [1] was 17 nM; in test [2], over 10000 nM.
The like results for `Cc1cccc(/C=N/Nc2cc(N3CCOCC3)n3nc(-c4ccc(Cl)cc4)cc3n2)c1` [Compound 13, N-{2-(4-chlorophenyl)-7-morpholin-4-yl-pyrazolo[1,5-a]-pyrimidin-5-yl}-N′-(3-methyl-benzylidene)-hydrazine] were, in that order, 34 nM and over 10000 nM.
For `Cc1cccc(/C=N/Nc2cc(N3CCOCC3)n3nc(-c4ccccc4C)cc3n2)c1` [Compound 14, N-(3-methyl-benzylidene)-N′-{2-(2-methyl-phenyl)-7-morpholin-4-yl-pyrazolo[1,5-a]pyrimidin-5-yl}-hydrazine], the IC50 in test [1] is 38 nM; in test [2], over 10000 nM.
The like results for `COc1ccc(-c2cc3nc(N/N=C/c4cccc(C)c4)cc(N4CCOCC4)n3n2)cc1` [Compound 15, N-{2-(4-methoxy-phenyl)-7-morpholin-4-yl-pyrazolo[1,5-a]pyrimidin-5-yl}-N′-(3-methyl-benzylidene)-hydrazine] were, in that order, 11 nM and over 10000 nM.
The like results for `Cc1cccc(/C=N/Nc2cc(N3CCOCC3)n3nc(-c4ccc(Br)cc4)cc3n2)c1` [Compound 16, N-{2-(4-bromo-phenyl)-7-morpholin-4-yl-pyrazolo[1,5-a]-pyrimidin-5-yl}-N′-(3-methyl-benzylidene)-hydrazine] were, in that order, 18 nM and over 10000 nM.
For `Cc1cccc(/C=N/Nc2cc(N3CCOCC3)n3nc(-c4ccc(N5CCOCC5)cc4)cc3n2)c1` [Compound 17, N-(3-methyl-benzylidene)-N′-{7-morpholin-4-yl-2-(4-morpholin-4-yl-phenyl)-pyrazolo[1,5-a]pyrimidin-5-yl}-hydrazine] the same measures were 4 nM and over 10000 nM.
`Cc1cccc(/C=N/Nc2cc(N3CCOCC3)n3nc(-c4cccs4)cc3n2)c1` [Compound 18, N-(3-methyl-benzylidene)-N′-(7-morpholin-4-yl-2-thiophen-2-yl-pyrazolo[1,5-a]pyrimidin-5-yl)-hydrazine]: the results for the half-maximal inhibitory concentration (IC50) in test [1] and in test [2] were 11 nM and over 10000 nM, respectively.
On to `CCc1cccc(/C=N/Nc2cc(N3CCOCC3)n3nc(-c4cccnc4)cc3n2)c1` [Compound 115], for which, in test [1], the IC50 is 55 nM.
Same read-out and setting: with `C(=N\Nc1cc(N2CCOCC2)n2nc(-c3ccncn3)cc2n1)/c1c[nH]c2ccccc12` [Compound 120, N-(1H-indol-3-yl-methylidene)-N-(7-morpholin-4-yl-2-pyrimidin-4-yl-pyrazolo[1,5-a]pyrimidin-5-yl)-hydrazine] the figure was 40 nM; with `Cc1cccc(/C=N/Nc2cc(N3CCOCC3)n3nc(-c4cncnc4)cc3n2)c1` [Compound 124, N-(3-methyl-benzylidene)-N′-(7-morpholin-4-yl-2-pyrimidin-5-yl-pyrazolo[1,5-a]pyrimidin-5-yl)-hydrazine], 20 nM; with `C(=N\Nc1cc(N2CCOCC2)n2nc(-c3ccncc3)cc2n1)/c1ccc2occc2c1` [Compound 125, N-benzofuran-5-yl-methylidene-N′-(7-morpholin-4-yl-2-pyridin-4-yl-pyrazolo[1,5-a]pyrimidin-5-yl)-hydrazine], 36 nM.
Regarding `Cc1cccc(/C=N/Nc2cc(N3CCOCC3)n3nc(N4CCOCC4)cc3n2)c1` [Compound 127, N-(3-methyl-benzylidene)-N-(2,7-dimorpholin-4-yl-pyrazolo[1,5-a]-pyrimidin-5-yl)-hydrazine], the IC50 in test [1] was 160 nM.
On the same count and under the same terms, as for `Fc1cccc(/C=N/Nc2cc(N3CCOCC3)n3nc(-c4ccncc4)cc3n2)c1` [Compound 130, N-(3-fluoro-benzylidene)-N′-(7-morpholin-4-yl-2-pyridin-4-yl-pyrazolo[1,5-a]pyrimidin-5-yl)-hydrazine], the figure is 140 nM.
Take `Cc1cccc(/C=N/Nc2cc(N3CCOCC3)n3nc(C4CCN(C(=O)OCc5ccccc5)CC4)cc3n2)c1` [Compound 131, N-[2-(1-benzyloxy-carbonyl-piperidin-4-yl)-7-morpholin-4-yl-pyrazolo[1,5-a]pyrimidin-5-yl]-N′-(3-methyl-benzylidene)-hydrazine]: the IC50 in test [1] was found to be 100 nM.
Still for that read-out and setting: with `Cc1cccc(/C=N/Nc2cc(N3CCOCC3)n3nc(C4CCNCC4)cc3n2)c1` [Compound 132, N-(3-methyl-benzylidene)-N′-(7-morpholin-4-yl-2-piperidin-4-yl-pyrazolo[1,5-a]pyrimidin-5-yl)-hydrazine] the figure was 470 nM; with `CC(=O)N1CCC(c2cc3nc(N/N=C/c4cccc(C)c4)cc(N4CCOCC4)n3n2)CC1` [Compound 133, N-[2-(1-acetyl-piperidin-4-yl)-7-morpholin-4-yl-pyrazolo-[1,5-a]pyrimidin-5-yl]-N′-(3-methyl-benzylidene)-hydrazine], 96 nM.
In the case of `Cc1cccc(/C=N/Nc2cc(N3CCOCC3)n3nc(OCc4ccccc4)cc3n2)c1` [Compound 134, N-(2-benzyloxy-7-morpholin-4-yl-pyrazolo[1,5-a]pyrimidin-5-yl)-N′-(3-methyl-benzylidene)-hydrazine], in test [1], the half-maximal inhibitory concentration (IC50) is 130 nM.
On the same count and under the same terms, as for `Cc1cccc(/C=N/Nc2cc(N3CCOCC3)n3nc(C(=O)N(C)c4ccncc4)cc3n2)c1` [Compound 135, 5-[N-(3-methyl-benzylidene)-hydrazino]-7-morpholin-4-yl-pyrazolo[1,5-a]pyrimidine-2-carboxylic acid methyl-pyridin-4-yl-amide], the figure is 130 nM; as for `OB(O)c1cccc(/C=N/Nc2cc(N3CCOCC3)n3nc(-c4ccccc4)cc3n2)c1` [Compound 139, N-(3-boronyl-benzylidene)-N-(7-morpholin-4-yl-2-phenyl-pyrazolo[1,5-a]pyrimidin-5-yl)-hydrazine], 250 nM.

(Values after patent US8314098B2, “Pyrazolo-pyrimidine compounds” (Ajinomoto Co., Inc., priority 2008, dated 2012).)
